Experimental findings from US10640545B2 (THE GOVERNORS OF THE UNIVERSITY OF ALBERTA, priority 2017, dated 2020) are described below.

The target in data set [1] is Recombinant Human Neprilysin (Homo sapiens, UniProt P08473). The experiment in a line: Neprilysin qualitative cleavage assay (MALDI-TOF). The following applies: rhNEP 2 ng/μL, 37° C., first degradation products by MALDI-TOF. As for the experimental part:
Native apelin-17 (2) and apelin peptides 5, 54, 56, 57, 58 and 59 were dissolved in Milli-Q water (1 mM). Recombinant Human Neprilysin (rhNEP, Sino Biological) was reconstituted in Tris buffer (100 mM Tris, 100 mM NaCl, 10 mM ZnCl2, pH 7.5). To initiate the assays, rhNEP was diluted in Tris buffer to a 2 ng/μL final concentration, and pre-incubated at 37° C. for 10 minutes prior to the addition of 5 μL of apelin peptide (1 mM). Aliquots (1 μL) were taken at 1, 2, 4, 6, 12, 24, 36, and 48 hours and analyzed with MALDI-TOF mass spectrometry to qualitatively determine the time point at which degradation products could be observed.

Data set [2] addresses Human plasma kallikrein KLKB1 (Homo sapiens, UniProt P03952). The experiment in a line: Plasma kallikrein KLKB1 qualitative cleavage assay (MALDI-TOF). The following applies: KLKB1, 37° C., first degradation products by MALDI-TOF. As for the experimental part: Native apelin-17 (2) and apelin peptides 5, 56, 57, 58 and 59 were dissolved in Milli-Q water (1 mM). Human plasma kallikrein KLKB1 were each reconstituted in Tris buffer (100 mM TrisHCl, 10 mM CaCl2), 150 mM NaCl) and diluted with Tris buffer (50 mM TrisHCl, 250 mM NaCl) to give a KLKB1 concentration of […]. The KLKB1 enzyme was then preincubated at 37° C. for 10 minutes prior to the addition of 5 μL of apelin peptide (1 mM). Aliquots (1 μL) were taken at 1, 2, 4, 6, 12, 24, 36, and 48 hours and analyzed with MALDI-TOF mass spectrometry to qualitatively determine the time point at which degradation products could be observed (Table 4).

Another data set has as its target NEP (Homo sapiens, UniProt P08473). The experiment in a line: Kinetic parameters for NEP cleavage. The data set is classed as biochemical. On the set-up: purchased Sino Biological. As to conditions: enzyme NEP.
Data set [3] can be described thus: In vitro peptide stability in human blood plasma (RP-HPLC).
Another data set concerns anesthetized mice. The experiment in a line: Blood pressure assay in anesthetized mice. It counts as in vivo. As to conditions: 1.4 μM/kg body weight injected, SBP, DBP, MABP. The method, boiled down:
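Mice were anaesthetized with 1.5% isoflurane/oxygen and kept at 36 °C. Peptide (1.4 μM/kg body weight) or saline was injected via the right jugular vein. Arterial pressure and heart rate were recorded continuously through a catheter in the aorta via the right carotid artery over 60 min and reported as SBP, DBP, MABP and HR.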

For a further data set, the system named is isolated rat hearts. The experiment in a line: Langendorff isolated heart, ischemia-reperfusion injury. The following applies: ex vivo heart, 30 min ischemia. As for the experimental part:
The ex vivo heart was assessed for a variety of parameters (heart rate (HR); left ventricle developed pressure (LVDP); maximum derivative of change in systolic pressure over time (max dP/dt); minimum derivative of change in diastolic pressure over time (min dP/dt); and rate-pressure product (RPP)) indicative of general heart function and performance (FIG. 11).
Langendorff heart perfusion and ischemia-reperfusion injury were prepared and cardiac function was measured. Mice were heparinized and anaesthetized with 1.5-2% isoflurane inhalation. The heart was excised, mounted on a Langendorff system, and perfused at a consistent pressure of 80 mmHg with modified Krebs-Henseleit solution (116 mM NaCl, 3.2 mM KCl, 2.0 mM CaCl2), 1.2 mM MgSO4, 25 mM NaHCO3, 1.2 mM KH2PO4, 11 mM glucose, 0.5 mM EDTA and 2 mM pyruvate), which was kept at 37° C. and continuously oxygenated with 95% O2 and 5% CO2 which maintained the perfusion buffer at pH 7.4. After stabilization and 10 min baseline recording, global ischemia was induced for 30 min followed by 40 min of reperfusion. Apelin 17 (2) or apelin peptides (11, 17, 18, or 19) were given at the start of reperfusion for 10 min at a concentration of 1 pM. Left ventricular functions were obtained continuously by PowerLab system (ADInstruments, Australia). Data was reported as mean value of every 5 min. Left ventricular functions were reported as: Left Ventricular Developed Pressure (LVDP); Heart rate (HR); maximum derivative of change in systolic pressure over time (max dP/dt); minimum derivative of change in diastolic pressure over time (min dP/dt); and Rate Pressure Product (RPP).

Where a SMILES comes first, the peptide text is derived from it. [ ]: non-standard residue; d: D form. Phe(4-Br) = N[C@@H](Cc1ccc(Br)cc1)C(=O)O; NMeL = CN[C@@H](CC(C)C)C(=O)O; Nle = CCCC[C@H](N)C(=O)O; Aib = CC(C)(N)C(=O)O Bounds are passed on as bounds.

Sequence of NEP (P08473 whole entry): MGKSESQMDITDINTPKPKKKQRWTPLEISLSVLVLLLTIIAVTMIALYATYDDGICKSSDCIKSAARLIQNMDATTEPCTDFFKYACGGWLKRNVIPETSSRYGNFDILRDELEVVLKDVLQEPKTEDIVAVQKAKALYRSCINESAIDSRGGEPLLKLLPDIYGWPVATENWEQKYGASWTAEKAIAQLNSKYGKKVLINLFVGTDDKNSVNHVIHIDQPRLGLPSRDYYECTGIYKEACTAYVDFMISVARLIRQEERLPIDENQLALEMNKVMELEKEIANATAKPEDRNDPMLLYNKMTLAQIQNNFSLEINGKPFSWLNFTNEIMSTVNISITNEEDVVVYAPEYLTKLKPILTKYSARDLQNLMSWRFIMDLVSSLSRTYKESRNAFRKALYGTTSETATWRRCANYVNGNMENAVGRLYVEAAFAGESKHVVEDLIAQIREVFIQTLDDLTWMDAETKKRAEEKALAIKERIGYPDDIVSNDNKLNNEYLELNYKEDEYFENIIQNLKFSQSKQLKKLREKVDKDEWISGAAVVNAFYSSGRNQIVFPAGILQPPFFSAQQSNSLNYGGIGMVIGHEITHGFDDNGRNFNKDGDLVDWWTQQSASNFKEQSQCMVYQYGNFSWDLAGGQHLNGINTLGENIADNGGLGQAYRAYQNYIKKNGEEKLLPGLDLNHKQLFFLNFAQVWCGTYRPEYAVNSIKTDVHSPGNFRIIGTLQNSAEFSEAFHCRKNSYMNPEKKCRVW
Sequence of Recombinant Human Neprilysin (P08473 whole entry): as above
Sequence of Human plasma kallikrein KLKB1 (P03952 20-638): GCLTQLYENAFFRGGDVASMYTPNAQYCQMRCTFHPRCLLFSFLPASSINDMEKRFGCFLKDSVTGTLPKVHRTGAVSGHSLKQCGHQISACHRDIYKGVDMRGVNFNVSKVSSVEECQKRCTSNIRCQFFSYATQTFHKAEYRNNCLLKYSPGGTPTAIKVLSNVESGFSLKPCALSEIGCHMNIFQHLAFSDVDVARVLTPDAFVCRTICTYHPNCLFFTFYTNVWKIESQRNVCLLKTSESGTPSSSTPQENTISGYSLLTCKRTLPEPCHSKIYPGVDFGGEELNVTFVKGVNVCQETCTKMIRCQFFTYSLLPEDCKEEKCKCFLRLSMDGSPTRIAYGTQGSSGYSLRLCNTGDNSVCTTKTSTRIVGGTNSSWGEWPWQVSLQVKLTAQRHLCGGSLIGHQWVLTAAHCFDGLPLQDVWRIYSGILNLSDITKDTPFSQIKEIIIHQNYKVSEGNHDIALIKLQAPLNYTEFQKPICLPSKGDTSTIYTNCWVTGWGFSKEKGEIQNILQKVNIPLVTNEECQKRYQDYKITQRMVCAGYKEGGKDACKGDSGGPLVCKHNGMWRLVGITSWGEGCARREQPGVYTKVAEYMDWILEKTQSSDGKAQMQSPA

One may read the Km as the concentration of substrate that gives half-maximal velocity. The kcat is the maximal rate divided by the concentration of active sites. As a reminder, the fraction remaining is the share of the starting amount still present when the sample was taken. Take `CSCC[C@H](NC(=O)[C@@H]1CCCN1C(=O)CNC(=O)[C@H](CCCCN)NC(=O)[C@H](Cc1cnc[nH]1)NC(=O)[C@H](CO)NC(=O)[C@H](CC(C)C)NC(=O)[C@H](CCCNC(=N)N)NC(=O)[C@@H]1CCCN1C(=O)[C@H](CCCNC(=N)N)NC(=O)[C@H](CCC(N)=O)NC(=O)[C@H](CCCNC(=N)N)NC(=O)[C@H](CCCNC(=N)N)NC(=O)[C@H](Cc1ccccc1)NC(=O)[C@@H](N)CCCCN)C(=O)N1CCC[C@H]1C(=O)N[C@@H](Cc1ccccc1)C(=O)O` [Peptide 2, reference compound]: the “Degradation Onset Timepoint with NEP” value in data set [1] is under 30 min. Besides, the “Degradation Onset Timepoint with KLKB1” value in data set [2] was under 30 min. On NEP, the Km is 190 ± 40 µM and the “kcat” value was 3.4 ± 0.3 s⁻¹. In data set [3] (human blood plasma), this compound registered a fraction remaining at 0.5 h, 80 µM of 51 ± 17% and a fraction remaining at 1 h, 80 µM of 39 ± 7%. In addition, the “t1/2 (hplasma, h)” value in data set [3] (plasma) stood at 0.02 h.

As for `CCCC[C@H](NC(=O)[C@@H]1CCCN1C(=O)CNC(=O)[C@H](CCCCN)NC(=O)[C@H](Cc1c[nH]cn1)NC(=O)[C@H](CO)NC(=O)[C@H](CC(C)C)N(C)C(=O)[C@H](CCCNC(=N)N)NC(=O)[C@@H]1CCCN1C(=O)[C@H](CCCNC(=N)N)NC(=O)[C@H](CCC(N)=O)NC(=O)[C@H](CCCNC(=N)N)NC(=O)[C@H](CCCNC(=N)N)NC(=O)[C@H](Cc1ccccc1)NC(=O)[C@@H](N)CCCCN)C(=O)NC(C)(C)C(=O)N[C@@H](Cc1ccc(Br)cc1)C(=O)O` [Peptide 11] (H-KFRRQRPR[NMeL]SHKGP[Nle][Aib][Phe(4-Br)]-OH; C-terminus assumed), the “blood pressure lowering (hypotensive) effect” value with anesthetized mice is listed as “potent hypotensive activity that rivaled or bested that of native 2 or A2 variant 5”. The “ability to rescue the heart from ischemic reperfusion injury” value with isolated rat hearts (peptide at start of reperfusion for 10 min at 1 pM) is “equivalent ability to rescue the heart from ischemic reperfusion injury compared to native isoform 2”. Moreover, in the data set with isolated rat hearts (reperfusion), the “max/min dP/dt, LVDP and RPP compared to native isoform 2” value is reported as “slight improvement over the native isoform”.
